According to patent publication US7834248B2, “Plant seed comprising vernolic acid” (Commonwealth Scientific and Industrial Research Organisation, priority 1997, dated 2010):
Each block holds one compound with its values, some of them ahead of it.

Legend:
[1] = test system: developing linseed cotyledons; assay: Incorporation of 14C-labelled oleic acid and vernolic acid into the lipids of developing linseed cotyledons
Experimental: 0.1 M phosphate buffer pH 7.2 for 90 or 270 min before extraction. An aliquot of the lipids in the chloroform phase was methylated and separated on silica gel TLC plates in n-hexane/diethylether/acetic acid (85:15:1). The rest of the lipids in the chloroform phase of each sample were applied on two separate silica gel TLC plates and the plates were developed in chloroform/methanol/acetic acid/water (85:15:10:3.5 by vol) for polar lipids separation and in n-hexane/diethylether/acetic acid (60:40:1.5) for neutral lipid separation. Lipid areas with migration corresponding to authentic standards were removed and radioactivity in each lipid were quantified by liquid scintillation counting.

[2] = test system: C. alpina oleate Δ12-desaturase; assay: Microsomal oleate Δ12-desaturase assay, effect of treatments; assay type: biochemical, Crepis alpina; conditions: for Enzyme Activity (% of control), C. alpina oleate Δ12-desaturase: microsomal membranes, control = minus NADPH plus NADH
Experimental: (§1) Preparations of membranes from Crepis alpina and Crepis palaestina were obtained as follows. Crepis alpina and Crepis palaestina plants were grown in green houses and seeds were harvested at the mid-stage of development (17-20 days after flowering). Cotyledons were squeezed out from their seed coats and homogenized with mortar and pestle in 0.1M phosphate buffer, pH 7.2 containing 0.33M sucrose, 4 mM NADH, 2 mM CoASH, 1 mg of bovine serum albumin/ml and 4,000 units of catalase/ml. The homogenate was centrifuged for 10 min at 18,000×g and the resulting supernatant centrifuged for 60 min at 150,000×g to obtain a microsome pellet.
(§2) […]. When NADPH was used as coreductant, the membranes were resuspended in homogenization buffer comprising NADPH in place of NADH.
(§3) Biochemical characterization of the microsomal linoleate Δ12-epoxygenase derived from Euphorbia lagascae and Crepis palaestina was carried out and data obtained were compared to the biochemical characteristics of oleate Δ12-desaturase and linoleate Δ12-acetylenase enzymes derived from microsomal preparations of Crepis alpina (Table 4).

[3] = target: T1, C. alpina linoleate Δ12-acetylenase (Crepis alpina, UniProt O81931); assay: Microsomal linoleate Δ12-acetylenase assay, effect of treatments; assay type: biochemical
T1 construct: from tissue; host or cells: microsomes from cotyledons of developing Crepis alpina seeds
Experimental: as §1, §2, §3

[4] = test system: C. palaestina linoleate Δ12-epoxygenase; assay: Microsomal linoleate Δ12-epoxygenase assay, effect of treatments; assay type: biochemical, Crepis palaestina; conditions: microsomal membranes; control = minus NADPH plus NADH
Experimental: as §1, §2, §3

[5] = test system: E. lagascae linoleate Δ12-epoxygenase; assay: Membrane linoleate Δ12-epoxygenase assay, effect of treatments; assay type: biochemical, Euphorbia lagascae; conditions: for Enzyme Activity (% of control), E. lagascae linoleate Δ12-epoxygenase: membranes, control = minus NADH plus NADPH
Experimental: Preparations of membranes from Euphorbia lagascae and assays of their epoxygenase activities were performed as described by Bafor et al. (1993) with incubations containing NADPH, unless otherwise indicated in Table 4. Lipid extraction, separation and methylation as well as GLC and radio-GLC separations were performed essentially as described by Kohn et al. (1994) and Bafor et al. (1993).
as §3

T1 sequence (O81931 whole entry, stated change not applied): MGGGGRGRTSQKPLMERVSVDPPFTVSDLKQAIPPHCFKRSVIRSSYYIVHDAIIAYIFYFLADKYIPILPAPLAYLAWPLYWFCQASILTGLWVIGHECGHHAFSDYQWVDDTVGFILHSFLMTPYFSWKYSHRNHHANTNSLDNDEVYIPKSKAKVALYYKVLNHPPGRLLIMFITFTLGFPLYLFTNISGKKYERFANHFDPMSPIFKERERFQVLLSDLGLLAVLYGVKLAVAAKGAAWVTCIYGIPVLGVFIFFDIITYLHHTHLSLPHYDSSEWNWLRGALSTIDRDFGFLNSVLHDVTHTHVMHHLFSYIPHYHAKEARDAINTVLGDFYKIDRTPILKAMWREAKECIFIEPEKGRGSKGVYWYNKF

- Activity of chloroform phase residing in phosphatidylcholine ([1]; after 30 min): About 22%
- Activity of chloroform phase residing in triacylglycerols ([1]; after 30 min): About 5%
- Added radioactivity taken up by the cotyledons and recovered as lipophilic substances (chloroform phase) ([1]; after the 30 min pulse labeling, virtually unchanged during further 270 min): Somewhat more than half
- Activity of chloroform phase residing in phosphatidylcholine ([1]; at 300 min of incubation): about 11%
- Activity of chloroform phase residing in triacylglycerols ([1]; at 300 min of incubation): 18%
- Activity contained in diacylglycerols ([1]; remained rather constant over the incubation periods): ~19%
Compound: CCCCCCCC/C=C\CCCCCCCC(=O)O [[^14C]oleic acid, oleic acid]

Compound: NC(=O)C1=CN([C@@H]2O[C@H](COP(=O)(O)OP(=O)(O)OC[C@H]3O[C@@H](n4cnc5c(N)ncnc54)[C@H](OP(=O)(O)O)[C@@H]3O)[C@@H](O)[C@H]2O)C=CC1 [NADPH]
- Enzyme Activity (% of control), C. alpina oleate Δ12-desaturase [2]: 95 % of control
- Enzyme Activity (% of control), C. alpina linoleate Δ12-acetylenase ([3]; microsomal membranes, control = minus NADPH plus NADH): 73 % of control
- Enzyme Activity (% of control), C. palaestina linoleate Δ12-epoxygenase [4]: 94 % of control

Compound: [C-]#[O+] [Carbon monoxide]
- Inhibition of oleate Δ12-desaturase (in words) ([2]; Crepis alpina microsomes): not by carbon monoxide
- Enzyme Activity (% of control), C. alpina oleate Δ12-desaturase [2]: 85 % of control
- Inhibition of linoleate Δ12-acetylenase (in words) ([3]; Crepis alpina microsomes): not by carbon monoxide
- Enzyme Activity (% of control), C. palaestina linoleate Δ12-epoxygenase [4]: 88 % of control
- Inhibition of linoleate Δ12-epoxygenase (in words) ([5]; Euphorbia lagascae membranes): is inhibited
- Enzyme Activity (% of control), E. lagascae linoleate Δ12-epoxygenase [5]: 3 % of control

Compound: CCCCCC1OC1CC=CCCCCCCCC(=O)O (centres unmarked) [[^14C]vernolic acid, 12,13-epoxy-9-octadecenoic acid]
- Metabolism of the epoxy group by linseed cotyledons (in words) [1]: do not metabolize the epoxy group of vernolic acid to any great extent

- Enzyme Activity (% of control), E. lagascae linoleate Δ12-epoxygenase [5]: 11 % of control
Compound: NC(=O)C1=CN([C@@H]2O[C@H](COP(=O)(O)OP(=O)(O)OC[C@H]3O[C@@H](n4cnc5c(N)ncnc54)[C@H](O)[C@@H]3O)[C@@H](O)[C@H]2O)C=CC1 [NADH]
